From patent US20250144223A1, “PROTEIN DEGRADATION COMPOUND BASED ON NAMPT TARGET PROTEIN AND APPLICATION THEREOF” (GLUETACS THERAPEUTICS (SHANGHAI) CO., LTD., priority 2021, published 2025)

Tested on: Jurkat
Test: CellTiter-Glo Luminescent Cell Viability Assay, half inhibitory concentration (IC50) on tumor cell proliferation
Format: cell-based
Conditions: Homo sapiens, Jurkat cells, 72 h treatment
Description: The tumor cells used herein were cultured in a cell culture medium at 37° C. in an incubator with 5% CO2, where the cell culture medium was supplemented with 10% FBS, as well as penicillin at a final concentration of 100 U/mL and streptomycin at a final concentration of 100 μg/mL. Prior to experimentation, all cells used were identified as correct cells by STR cells, and were negative for mycoplasma through routine testing.
IC50 values of the compounds of the present disclosure (including the compounds in Table 1 and compounds of examples) were measured using the CellTiter-Glo® Luminescent Cell Viability Assay kit from Promega Corporation. Assay details are as follows: Cells were seeded in 100 μL RPMI1640 medium containing serum at a density of 20,000 cells/well. After 24 h, the inoculated cells were treated with the compounds of the present disclosure which were serially diluted. After the cells were treated with the compounds of the present disclosure for 72 h, the CellTiter-Glo® reagent was added to the culture medium for cell viability assessment according to the instructions provided with the kit. DMSO served as the negative control, and FK866 inhibitor was used as the positive control, both treated with the same protocol as the compounds of the present disclosure. The growth inhibition of the compounds of the present disclosure on cells was plotted by Prism Graphpad software, and the IC50 values of the compounds of the present disclosure were calculated therefrom.

SMILES | IC50 [nM]
O=C(/C=C/c1cccnc1)NCCCCC1CCN(C(=O)c2ccc(N3CCN(C(=O)COCCOCCSc4cccc5c4C(=O)N(C4CCC(=O)NC4=O)C5=O)CC3)cc2)CC1 (stereo not drawn) [SIAIS631112, (E)-N-(4-(1-(4-(4-(2-(2-(2-((2-(2,6-dioxopiperidin-3-yl)-1,3-dioxoisoindolin-4-yl)thio)ethoxy)ethoxy)acetyl)piperazin-1-yl)benzoyl)piperidin-4-yl)butyl)-3-(pyridin-3-yl)acrylamide] | 66.7
O=C(/C=C/c1cccnc1)NCCCCC1CCN(C(=O)c2ccc(N3CCN(C(=O)COCCOCCOCCSc4cccc5c4C(=O)N(C4CCC(=O)NC4=O)C5=O)CC3)cc2)CC1 (stereo not drawn) [SIAIS631113, (E)-N-(4-(1-(4-(4-(2-(2-(2-(2-((2-(2,6-dioxopiperidin-3-yl)-1,3-dioxoisoindolin-4-yl)thio)ethoxy)ethoxy)ethoxy)acetyl)piperazin-1-yl)benzoyl)piperidin-4-yl)butyl)-3-(pyridin-3-yl)acrylamide] | 68.1
O=C(/C=C/c1cccnc1)NCCCCC1CCN(C(=O)c2ccc(N3CCN(C(=O)COCCOCCOCCOCCSc4cccc5c4C(=O)N(C4CCC(=O)NC4=O)C5=O)CC3)cc2)CC1 (stereo not drawn) [SIAIS631114, (E)-N-(4-(1-(4-(4-(14-((2-(2,6-dioxopiperidin-3-yl)-1,3-dioxoisoindolin-4-yl)thio)-3,6,9,12-tetraoxatetradecanoyl)piperazin-1-yl)benzoyl)piperidin-4-yl)butyl)-3-(pyridin-3-yl)acrylamide] | 66.5
O=C(/C=C/c1cccnc1)NCCCCC1CCN(C(=O)c2ccc(N3CCN(C(=O)COCCOCCOCCOCCOCCSc4cccc5c4C(=O)N(C4CCC(=O)NC4=O)C5=O)CC3)cc2)CC1 (stereo not drawn) [SIAIS631115, (E)-N-(4-(1-(4-(4-(17-((2-(2,6-dioxopiperidin-3-yl)-1,3-dioxoisoindolin-4-yl)thio)-3,6,9,12,15-pentaoxaheptadecanoyl)piperazin-1-yl)benzoyl)piperidin-4-yl)butyl)-3-(pyridin-3-yl)acrylamide] | 74.2
O=C(/C=C/c1cccnc1)NCCCCC1CCN(C(=O)c2ccc(N3CCN(C(=O)COCCOCCOCCOCCOCCSc4cccc5c4CN(C4CCC(=O)NC4=O)C5=O)CC3)cc2)CC1 (stereo not drawn) [SIAIS631118, (E)-N-(4-(1-(4-(4-(17-((2-(2,6-dioxopiperidin-3-yl)-1-oxoisoindolin-4-yl)thio)-3,6,9,12,15-pentaoxaheptadecanoyl)piperazin-1-yl)benzoyl)piperidin-4-yl)butyl)-3-(pyridin-3-yl)acrylamide] | 66.6
O=C(/C=C/c1cccnc1)NCCCCC1CCN(C(=O)c2ccc(N3CCN(CCCC#Cc4cccc5c4C(=O)N(C4CCC(=O)NC4=O)C5=O)CC3)cc2)CC1 (stereo not drawn) [SIAIS631119, (E)-N-(4-(1-(4-(4-(5-(2-(2,6-dioxopiperidin-3-yl)-1,3-dioxoisoindolin-4-yl)pent-4-yn-1-yl)piperazin-1-yl)benzoyl)piperidin-4-yl)butyl)-3-(pyridin-3-yl)acrylamide] | 623
O=C(/C=C/c1cccnc1)NCCCCC1CCN(C(=O)c2ccc(N3CCN(CCCCC#Cc4cccc5c4C(=O)N(C4CCC(=O)NC4=O)C5=O)CC3)cc2)CC1 (stereo not drawn) [SIAIS631120, (E)-N-(4-(1-(4-(4-(6-(2-(2,6-dioxopiperidin-3-yl)-1,3-dioxoisoindolin-4-yl)hex-5-yn-1-yl)piperazin-1-yl)benzoyl)piperidin-4-yl)butyl)-3-(pyridin-3-yl)acrylamide] | 71
O=C(/C=C/c1cccnc1)NCCCCC1CCN(C(=O)c2ccc(N3CCN(CCCCCCC#Cc4cccc5c4C(=O)N(C4CCC(=O)NC4=O)C5=O)CC3)cc2)CC1 (stereo not drawn) [SIAIS631121, (E)-N-(4-(1-(4-(4-(8-(2-(2,6-dioxopiperidin-3-yl)-1,3-dioxoisoindolin-4-yl)oct-7-yn-1-yl)piperazin-1-yl)benzoyl)piperidin-4-yl)butyl)-3-(pyridin-3-yl)acrylamide] | 63.9
O=C(/C=C/c1cccnc1)NCCCCC1CCN(C(=O)c2ccc(N3CCC(N4CCNCC4)CC3)nn2)CC1 [SIAIS631135, (E)-N-(4-(1-(6-(4-(piperazin-1-yl)piperidin-1-yl)pyridazine-3-carbonyl)piperidin-4-yl)butyl)-3-(pyridin-3-yl)acrylamide] | 725
O=C(/C=C/c1cccnc1)NCCCCC1CCN(C(=O)c2ccc(C3CCN(CCCCCC#Cc4cccc5c4CN(C4CCC(=O)NC4=O)C5=O)CC3)cc2)CC1 (stereo not drawn) [SIAIS631139, (E)-N-(4-(1-(4-(1-(7-(2-(2,6-dioxopiperidin-3-yl)-1-oxoisoindolin-4-yl)hept-6-yn-1-yl)piperidin-4-yl)benzoyl)piperidin-4-yl)butyl)-3-(pyridin-3-yl)acrylamide] | 5.23
O=C(/C=C/c1cccnc1)NCCCCC1CCN(C(=O)c2ccc(C3CCN(CCCCCCC#Cc4cccc5c4CN(C4CCC(=O)NC4=O)C5=O)CC3)cc2)CC1 (stereo not drawn) [SIAIS631140, (E)-N-(4-(1-(4-(1-(8-(2-(2,6-dioxopiperidin-3-yl)-1-oxoisoindolin-4-yl)oct-7-yn-1-yl)piperidin-4-yl)benzoyl)piperidin-4-yl)butyl)-3-(pyridin-3-yl)acrylamide] | 9.7
O=C(/C=C/c1cccnc1)NCCCCC1CCN(C(=O)c2ccc(C3CCN(CCCCSc4cccc5c4CN(C4CCC(=O)NC4=O)C5=O)CC3)cc2)CC1 (stereo not drawn) [SIAIS631141, (E)-N-(4-(1-(4-(1-(4-((2-(2,6-dioxopiperidin-3-yl)-1-oxoisoindolin-4-yl)thio)butyl)piperidin-4-yl)benzoyl)piperidin-4-yl)butyl)-3-(pyridin-3-yl)acrylamide] | 5.36
O=C(/C=C/c1cccnc1)NCCCCC1CCN(C(=O)c2ccc(N3CCNCC3)nn2)CC1 [SIAIS632004, (E)-N-(4-(1-(6-(piperazin-1-yl)pyridazine-3-carbonyl)piperidin-4-yl)butyl)-3-(pyridin-3-yl)acrylamide] | 362
O=C(/C=C/c1cccnc1)NCCCCC1CCN(C(=O)c2ccc(N3CCC(N4CCN(CCCCCC#Cc5cccc6c5CN(C5CCC(=O)NC5=O)C6=O)CC4)CC3)nn2)CC1 (stereo not drawn) [SIAIS632005, (E)-N-(4-(1-(6-(4-(4-(7-(2-(2,6-dioxopiperidin-3-yl)-1-oxoisoindolin-4-yl)hept-6-yn-1-yl)piperazin-1-yl)piperidin-1-yl)pyridazine-3-carbonyl)piperidin-4-yl)butyl)-3-(pyridin-3-yl)acrylamide] | 3.98
O=C(/C=C/c1cccnc1)NCCCCC1CCN(C(=O)c2ccc(N3CCC(N4CCN(CCCCCCC#Cc5cccc6c5CN(C5CCC(=O)NC5=O)C6=O)CC4)CC3)nn2)CC1 (stereo not drawn) [SIAIS632006, (E)-N-(4-(1-(6-(4-(4-(8-(2-(2,6-dioxopiperidin-3-yl)-1-oxoisoindolin-4-yl)oct-7-yn-1-yl)piperazin-1-yl)piperidin-1-yl)pyridazine-3-carbonyl)piperidin-4-yl)butyl)-3-(pyridin-3-yl)acrylamide] | 6.39
O=C(/C=C/c1cccnc1)NCCCCC1CCN(C(=O)c2ccc(N3CCC(N4CCN(CCCCSc5cccc6c5CN(C5CCC(=O)NC5=O)C6=O)CC4)CC3)nn2)CC1 (stereo not drawn) [SIAIS632007, (E)-N-(4-(1-(6-(4-(4-(4-((2-(2,6-dioxopiperidin-3-yl)-1-oxoisoindolin-4-yl)thio)butyl)piperazin-1-yl)piperidin-1-yl)pyridazine-3-carbonyl)piperidin-4-yl)butyl)-3-(pyridin-3-yl)acrylamide] | 3.59
O=C(/C=C/c1cccnc1)NCCCCC1CCN(C(=O)c2ccc(N3CCN(CCCCCC#Cc4cccc5c4CN(C4CCC(=O)NC4=O)C5=O)CC3)nn2)CC1 (stereo not drawn) [SIAIS632010, (E)-N-(4-(1-(6-(4-(7-(2-(2,6-dioxopiperidin-3-yl)-1-oxoisoindolin-4-yl)hept-6-yn-1-yl)piperazin-1-yl)pyridazine-3-carbonyl)piperidin-4-yl)butyl)-3-(pyridin-3-yl)acrylamide] | 8.35
O=C(/C=C/c1cccnc1)NCCCCC1CCN(C(=O)c2ccc(N3CCN(CCCCCCC#Cc4cccc5c4CN(C4CCC(=O)NC4=O)C5=O)CC3)nn2)CC1 (stereo not drawn) [SIAIS632011, (E)-N-(4-(1-(6-(4-(8-(2-(2,6-dioxopiperidin-3-yl)-1-oxoisoindolin-4-yl)oct-7-yn-1-yl)piperazin-1-yl)pyridazine-3-carbonyl)piperidin-4-yl)butyl)-3-(pyridin-3-yl)acrylamide] | 9.3
O=C(/C=C/c1cccnc1)NCCCCC1CCN(C(=O)c2ccc(N3CCN(CCCCSc4cccc5c4CN(C4CCC(=O)NC4=O)C5=O)CC3)nn2)CC1 (stereo not drawn) [SIAIS632012, (E)-N-(4-(1-(6-(4-(4-((2-(2,6-dioxopiperidin-3-yl)-1-oxoisoindolin-4-yl)thio)butyl)piperazin-1-yl)pyridazine-3-carbonyl)piperidin-4-yl)butyl)-3-(pyridin-3-yl)acrylamide] | 1.66
O=C(/C=C/c1cccnc1)NCCCCC1CCN(C(=O)c2ccc(N3CCN(C(=O)CNc4cccc5c4CN(C4CCC(=O)NC4=O)C5=O)CC3)cc2)CC1 (stereo not drawn) [SIAIS632014, (E)-N-(4-(1-(4-(4-((2-(2,6-dioxopiperidin-3-yl)-1-oxoisoindolin-4-yl)glycyl)piperazin-1-yl)benzoyl)piperidin-4-yl)butyl)-3-(pyridin-3-yl)acrylamide] | 6.81
O=C(/C=C/c1cccnc1)NCCCCC1CCN(C(=O)c2ccc(N3CCN(C(=O)CCCNc4cccc5c4CN(C4CCC(=O)NC4=O)C5=O)CC3)cc2)CC1 (stereo not drawn) [SIAIS632015, (E)-N-(4-(1-(4-(4-(4-((2-(2,6-dioxopiperidin-3-yl)-1-oxoisoindolin-4-yl)amino)butanoyl)piperazin-1-yl)benzoyl)piperidin-4-yl)butyl)-3-(pyridin-3-yl)acrylamide] | 523
